The text below walks through data of article PMC11861427, “Functional Characterization of a Female-Biased Chemoreceptor of the Codling Moth (Cydia pomonella) Responding to Aldehydes and Other Volatile Compounds” (Journal of Chemical Ecology, 2025).

Assay [1] concerns T1, CpomOR22.
T1 construct: gene OR22
The assay can be described thus: SSR dose response and GC-SSR in transgenic Drosophila ab3A neurons. On the set-up: species or system Cydia pomonella.

For assay [2], the system named is T2, CpomOR22.
T2 construct: gene OR22; with CpomOrco
The assay can be described thus: two-electrode voltage clamp, Xenopus oocytes, dose response; also GC-SSR. It is filed as cell-based, Cydia pomonella. For orientation: Two-electrode voltage clamp holds a large cell at a set potential and records current.

Assay [3] relates to T2, CpomOR22. The assay can be described thus: two-electrode voltage clamp, Xenopus oocytes, dose response. Type of assay: cell-based, Cydia pomonella. From the text:
two-electrode voltage clamp, Xenopus oocytes, dose response on CpomOR22 | CpomOR22 dose responsiveness to undecanal and γ-undecalactone across five orders of magnitude

In turn, `CCCC/C=C\CCCCC=O` [(Z)−6-undecenal] displayed an EC50 with CpomOR22 [1] of 2.903 ± 1.709 µg. With `CCCCCCCCCCC=O` [undecanal], in the assay on CpomOR22 [2], the EC50 was 16.7 µM.

Consider `CCCCCCCC1CCC(=O)O1` (stereo not drawn) [γ-undecalactone], for which the EC50 in the assay with CpomOR22 [3] worked out at 8.4 µM.
